Assay results taken from patent US9089603B2, “Fluorescent imaging with substituted cyanine dyes” (LI-COR, INC., priority 2010, dated 2015).

Experiments:
[1] = Absorption wavelength of the cyanine dyes in methanol (halo substitution effect); type: physicochemical
Excerpt: [table] Design Principle: We analyzed the properties of a dye scaffold and related compounds and the corresponding substitution effects on the excitation and emission wavelengths. The small size of fluorine is unlikely to produce steric effects, therefore, we explored the electronic effects of fluorine and related substitutions. The Hammett equation (σ-value) is an important tool to understand the electronic effects of the substituents, therefore, we explored the correlation of the wavelength (λMeOH) and the σ-value (vide infra): […]

[2] = Comparison of dye emission maxima and quenching; type: physicochemical; details: IRDye 800CW samples, excitation 770 nm; for Peak fluorescence emission intensity: PBS pH 7.4
Method: Solutions of dye-linker standards and dye-linker-quencher samples were diluted into PBS buffer (pH 7.4) to give a dye-specific absorbance less than 0.2 AU. The fluorescence spectra of each dilution were then taken at a consistent excitation wavelength (670 nm for HETD and 770 nm for IRDye 800CW). The emission spectra were collected from 680-1000 nm for the HETD samples and 780-1000 nm for the IRDye 800CW samples.

[3] = In vivo clearance imaging in nude mice (Pearl Impulse); details: 1 nmole; for Total (signal): 800 channel
Method: Two nude mice were injected with 1 nmole of either compound 16 or IRDye 800CW carboxylate. They were then imaged longitudinally over the next 24 h with the Pearl Impulse imaging system. The results are presented in FIG. 9: in vivo clearance in nudes (FIG. 9A), whole body dorsal views (FIG. 9B), and the rate of clearance (FIG. 9C). The clearance data is presented below in Table 4.

[4] = Photophysical properties (absorption, emission, fluorescence intensity, quantum yield) versus IRDye 800CW; type: physicochemical

CC1(C)C(/C=C/C2=C(c3c(F)cc(C(=O)O)cc3F)C(=C/C=C3/N(CCCCS(=O)(=O)[O-])c4ccc(S(=O)(=O)[O-])cc4C3(C)C)/CCC2)=[N+](CCCCCC(=O)O)c2ccc(S(=O)(=O)[O-])cc21.[Na+].[Na+] gave a λMeOH ([1]; Table 5) of 782 nm.
For CC1(C)C(/C=C/C2=C(c3c(F)cccc3F)C(=C/C=C3/N(CCCCS(=O)(=O)[O-])c4ccc(S(=O)(=O)[O-])cc4C3(C)C)/CCC2)=[N+](CCCCCC(=O)O)c2ccc(S(=O)(=O)[O-])cc21.[Na+].[Na+], the λMeOH ([1]; Table 5) was 782 nm.
In the case of CC1(C)C(/C=C/C2=C(c3c(F)cccc3F)C(=C/C=C3/N(CCCCS(=O)(=O)[O-])c4ccc(S(=O)(=O)[O-])cc4C3(C)C)/CCC2)=[N+](CCCCS(=O)(=O)[O-])c2ccc(S(=O)(=O)[O-])cc21.[Na+].[Na+].[Na+] [Compound 13], the λMeOH ([1]; Table 2) is reported as 782 nm.
Work on CC1(C)C(/C=C/C2=C(c3c(F)cc(C(=O)O)cc3F)C(=C/C=C3/N(CCCCS(=O)(=O)[O-])c4ccc(S(=O)(=O)[O-])cc4C3(C)C)/CCC2)=[N+](CCCCS(=O)(=O)[O-])c2ccc(S(=O)(=O)[O-])cc21.[Na+].[Na+].[Na+] [Compound 26] yielded a λMeOH ([1]; Table 2) of 782 nm.
In the case of CC1(C)C(/C=C/C2=C(c3ccc(CCC(=O)O)c(F)c3F)C(=C/C=C3/N(CCCCS(=O)(=O)[O-])c4ccc(S(=O)(=O)[O-])cc4C3(C)C)/CCC2)=[N+](CCCCS(=O)(=O)[O-])c2ccc(S(=O)(=O)[O-])cc21.[Na+].[Na+].[Na+] [Compound 65], the λMeOH ([1]; Table 2) is reported as 776 nm.
CCCCOc1ccc(F)c(C2=C(/C=C/C3=[N+](CCCCS(=O)(=O)[O-])c4ccc(S(=O)(=O)[O-])cc4C3(C)C)CCC/C2=C\C=C2\N(CCCCS(=O)(=O)[O-])c3ccc(S(=O)(=O)[O-])cc3C2(C)C)c1F.[Na+].[Na+].[Na+] [Compound 22] showed a λMeOH ([1]; Table 2) of 783 nm.
Work on CC1(C)C(/C=C/C2=C(c3c(Cl)cccc3Cl)C(=C/C=C3/N(CCCCS(=O)(=O)[O-])c4ccc(S(=O)(=O)[O-])cc4C3(C)C)/CCC2)=[N+](CCCCCC(=O)O)c2ccc(S(=O)(=O)[O-])cc21.[Na+].[Na+] yielded a λMeOH ([1]; Table 5) of 782 nm.
For CC1(C)C(/C=C/C2=C(c3cccc(CCCCC(=O)O)c3)C(=C/C=C3/N(CCCCS(=O)(=O)[O-])c4ccc(S(=O)(=O)[O-])cc4C3(C)C)/CCC2)=[N+](CCCCS(=O)(=O)[O-])c2ccc(S(=O)(=O)[O-])cc21.[Na+].[Na+].[Na+] [Compound 11], the λMeOH ([1]; Table 2) was 766 nm.
CC1(C)C(/C=C/C2=C(c3c(F)cc(F)cc3F)C(=C/C=C3/N(CCCCS(=O)(=O)[O-])c4ccc(S(=O)(=O)[O-])cc4C3(C)C)/CCC2)=[N+](CCCCCC(=O)O)c2ccc(S(=O)(=O)[O-])cc21.[Na+].[Na+] showed a λMeOH ([1]; Table 5) of 785 nm.
For CCCCOc1c(F)c(F)c(C2=C(/C=C/C3=[N+](CCCCCC(=O)O)c4ccc(S(=O)(=O)[O-])cc4C3(C)C)CCC/C2=C\C=C2\N(CCCCS(=O)(=O)[O-])c3ccc(S(=O)(=O)[O-])cc3C2(C)C)c(F)c1F.[Na+].[Na+], the λMeOH ([1]; Table 5) was 790 nm.
Work on CC1(C)C(/C=C/C2=C(c3ccc(C(=O)NCCCCCC(=O)O)c(F)c3F)C(=C/C=C3/N(CCCCS(=O)(=O)[O-])c4ccc(S(=O)(=O)[O-])cc4C3(C)C)/CCC2)=[N+](CCCCS(=O)(=O)[O-])c2ccc(S(=O)(=O)[O-])cc21.[Na+].[Na+].[Na+] [Compound 66] yielded a λMeOH ([1]; Table 2) of 773 nm.
With CC1(C)C(/C=C/C2=C(c3cccc(F)c3F)C(=C/C=C3/N(CCCCS(=O)(=O)[O-])c4ccc(S(=O)(=O)[O-])cc4C3(C)C)/CC(C(=O)O)C2)=[N+](CCCCS(=O)(=O)[O-])c2ccc(S(=O)(=O)[O-])cc21.[Na+].[Na+].[Na+] (centres unmarked) [Compound 63a] the λMeOH ([1]; Table 2) was 770 nm.
In the case of CC1(C)C(/C=C/C2=C(Oc3ccc(S(=O)(=O)[O-])cc3)C(=C/C=C3/N(CCCCS(=O)(=O)[O-])c4ccc(S(=O)(=O)[O-])cc4C3(C)C)/CCC2)=[N+](CCCCCC(=O)NCCCCCCNC(=O)CCCCC[N+]2=C(/C=C/C3=C(c4ccccc4F)C(=C/C=C4/N(CCCS(=O)(=O)[O-])c5ccc(N(CCCS(=O)(=O)[O-])CCCS(=O)(=O)[O-])cc5C4(C)C)/CCC3)C(C)(C)c3c2ccc2cc(S(=O)(=O)[O-])ccc32)c2ccc(S(=O)(=O)[O-])cc21.[Na+].[Na+].[Na+].[Na+].[Na+].[Na+] [Compound 37], the “Peak fluorescence emission intensity” value [2] is reported as 519267 and the “Percent Quenching” value ([2]; versus dye-linker standard) is reported as 61.4%.
For CC1(C)C(/C=C/C2=C(Oc3ccc(S(=O)(=O)[O-])cc3)C(=C/C=C3/N(CCCCCC(=O)NCCC(=O)N4Cc5ccccc5C#Cc5ccccc54)c4ccc(S(=O)(=O)[O-])cc4C3(C)C)/CCC2)=[N+](CCCCS(=O)(=O)[O-])c2ccc(S(=O)(=O)[O-])cc21.[Na+].[Na+].[Na+] [Compound 30], the “Peak fluorescence emission intensity” value [2] was 1203780.
CCCCOc1c(F)cc(F)c(C2=C(/C=C/C3=[N+](CCCCCC(=O)O)c4ccc(S(=O)(=O)[O-])cc4C3(C)C)CCC/C2=C\C=C2\N(CCCCS(=O)(=O)[O-])c3ccc(S(=O)(=O)[O-])cc3C2(C)C)c1F.[Na+].[Na+] gave a λMeOH ([1]; Table 5) of 789 nm.
With “IRDye 800CW carboxylate [reference compound]” the “Total (signal)” value ([3]; 3 Min) was 114295.49, the “Total (signal)” value ([3]; 19 Min) was 306555.97 and the “Total (signal)” value ([3]; 47 Min) was 291381.69. For the same molecule, the “Total (signal)” value ([3]; 74 Min) was 272408.13, the “Total (signal)” value ([3]; 192 Min) was 154950.09 and the “Total (signal)” value ([3]; 278 Min) was 102698.54. The “Total (signal)” value ([3]; 1439 Min) was 2336.87 and the Clearance in vivo ([3]; nude mice, imaged over 24 h) was “good clearance”.
Molecule COc1cc(F)c(C2=C(/C=C/C3=[N+](CCCCCC(=O)O)c4ccc(S(=O)(=O)[O-])cc4C3(C)C)CCC/C2=C\C=C2\N(CCCCS(=O)(=O)[O-])c3ccc(S(=O)(=O)[O-])cc3C2(C)C)c(F)c1.[Na+].[Na+] has a λMeOH ([1]; Table 5) of 772 nm.
With CC1(C)C(/C=C/C2=C(Oc3ccc(S(=O)(=O)[O-])cc3)C(=C/C=C3/N(CCCCS(=O)(=O)[O-])c4ccc(S(=O)(=O)[O-])cc4C3(C)C)/CCC2)=[N+](CCCCCC(=O)NCCCOCCOCCOCCCN)c2ccc(S(=O)(=O)[O-])cc21.O=C(O)C(F)(F)F.[Na+].[Na+].[Na+] [Compound 32] the “Peak fluorescence emission intensity” value [2] was 1343900.
With CC1(C)C(/C=C/C2=C(c3cccc(F)c3F)C(=C/C=C3/N(CCCCS(=O)(=O)[O-])c4ccc(S(=O)(=O)[O-])cc4C3(C)C)/CCC2)=[N+](CCCCS(=O)(=O)[O-])c2ccc(S(=O)(=O)[O-])cc21.[Na+].[Na+].[Na+] [Compound 62k] the “Fl Intensity of X / Fl Intensity of 800 CW, Odyssey” value ([4]; 0.1 μM solutions in 1XPBS, Odyssey) was 104%, the “Fl Intensity of X / Fl Intensity of 800 CW, Fluorimeter” value ([4]; 0.1 μM solutions in 1XPBS, fluorimeter) was 100% and the “Quantum Yield” value ([4]; Stnd = IRDye 800CW (QY = 0.07)) was 0.060. For the same molecule, the “Abs Max PBS” value ([4]; in PBS) was 773 nm, the “EmMax PBS” value ([4]; in PBS) was 790 nm and the “Abs Max Methanol” value ([4]; in methanol) was 781 nm.
Work on CC1(C)C(/C=C/C2=C(c3c(Cl)cccc3Cl)C(=C/C=C3/N(CCCS(=O)(=O)[O-])c4ccc(S(=O)(=O)[O-])cc4C3(C)C)/CC(C(=O)O)C2)=[N+](CCCS(=O)(=O)[O-])c2ccc(S(=O)(=O)[O-])cc21.[Na+].[Na+].[Na+] (centres unmarked) [Compound 15] yielded a λMeOH ([1]; Table 2) of 782 nm.
CC1(C)C(/C=C/C2=C(c3ccccc3F)C(=C/C=C3/N(CCCCS(=O)(=O)[O-])c4ccc(S(=O)(=O)[O-])cc4C3(C)C)/CCC2)=[N+](CCCCCC(=O)O)c2ccc(S(=O)(=O)[O-])cc21.[Na+].[Na+] showed a λMeOH ([1]; Table 5) of 772 nm.
In the case of COc1cc(F)c(C2=C(/C=C/C3=[N+](CCCCS(=O)(=O)[O-])c4ccc(S(=O)(=O)[O-])cc4C3(C)C)CCC/C2=C\C=C2\N(CCCCS(=O)(=O)[O-])c3ccc(S(=O)(=O)[O-])cc3C2(C)C)c(F)c1.[Na+].[Na+].[Na+] [Compound 21], the λMeOH ([1]; Table 2) is reported as 783 nm.
With CCCCOc1c(F)cc(F)c(C2=C(/C=C/C3=[N+](CCCCS(=O)(=O)[O-])c4ccc(S(=O)(=O)[O-])cc4C3(C)C)CCC/C2=C\C=C2\N(CCCCS(=O)(=O)[O-])c3ccc(S(=O)(=O)[O-])cc3C2(C)C)c1F.[Na+].[Na+].[Na+] [Compound 23] the λMeOH ([1]; Table 2) was 789 nm.
Work on CC1(C)C(/C=C/C2=C(c3c(F)cc(F)cc3F)C(=C/C=C3/N(CCCCS(=O)(=O)[O-])c4ccc(S(=O)(=O)[O-])cc4C3(C)C)/CCC2)=[N+](CCCCS(=O)(=O)[O-])c2ccc(S(=O)(=O)[O-])cc21.[Na+].[Na+].[Na+] [Compound 14] yielded a λMeOH ([1]; Table 2) of 785 nm.
Work on CCCCOc1ccc(F)c(C2=C(/C=C/C3=[N+](CCCCCC(=O)O)c4ccc(S(=O)(=O)[O-])cc4C3(C)C)CCC/C2=C\C=C2\N(CCCCS(=O)(=O)[O-])c3ccc(S(=O)(=O)[O-])cc3C2(C)C)c1F.[Na+].[Na+] yielded a λMeOH ([1]; Table 5) of 779 nm.
CCCCOc1c(F)c(F)c(C2=C(/C=C/C3=[N+](CCCCS(=O)(=O)[O-])c4ccc(S(=O)(=O)[O-])cc4C3(C)C)CCC/C2=C\C=C2\N(CCCCS(=O)(=O)[O-])c3ccc(S(=O)(=O)[O-])cc3C2(C)C)c(F)c1F.[Na+].[Na+].[Na+] [Compound 24] gave a λMeOH ([1]; Table 2) of 790 nm.
For CC1(C)C(/C=C/C2=C(c3ccc(C(=O)O)c(F)c3F)C(=C/C=C3/N(CCCCS(=O)(=O)[O-])c4ccc(S(=O)(=O)[O-])cc4C3(C)C)/CCC2)=[N+](CCCCS(=O)(=O)[O-])c2ccc(S(=O)(=O)[O-])cc21.[Na+].[Na+].[Na+] [Compound 64], the λMeOH ([1]; Table 2) was 772 nm.
For CC1(C)C(/C=C/C2=C(c3ccccc3F)C(=C/C=C3/N(CCCCS(=O)(=O)[O-])c4ccc(S(=O)(=O)[O-])cc4C3(C)C)/CCC2)=[N+](CCCCS(=O)(=O)[O-])c2ccc(S(=O)(=O)[O-])cc21.[Na+].[Na+].[Na+] [Compound 12], the λMeOH ([1]; Table 2) was 772 nm.
